Measurements as given in patent US9211326B2, “Method of enhancing the proliferative phase of a primary T cell response” (Tampa Bay Research Institute, priority 2013, dated 2015).
“Also recorded” adds a separate entry of the source.

Legend:
[1] = test system: Bcl-2; details: cited from earlier work
[2] = test system: Vβ8+ T cells; set-up: species or system Balb/c mice; details: mouse, in vivo
[3] = test system: IL-2; set-up: species or system Balb/c mice; details: mouse, in vivo
[4] = test system: IFNg; set-up: species or system Balb/c mice; details: mouse, in vivo
[5] = test system: IL-12p70; set-up: species or system Balb/c mice; details: mouse, in vivo
[6] = test system: Bcl-2; set-up: species or system Balb/c mice; details: mouse, in vivo
[7] = test system: Bcl-2 mRNA; experiment: qPCR gene expression in lymph node cells: Bcl-2; set-up: species or system Balb/c mice; details: mouse, in vivo
[8] = test system: Bcl-xL mRNA; experiment: qPCR gene expression in lymph node cells: Bcl-xL; set-up: species or system Balb/c mice; details: mouse, in vivo
[9] = test system: Bax mRNA; set-up: species or system Balb/c mice; details: mouse, in vivo
[10] = test system: Vβ8+ T cells; set-up: species or system Balb/c mice; details: mouse, in vivo; remark: listed apart in the source

O=C(O)c1ccc(/C2=C3\C=CC(=N3)/C(c3ccc(C(=O)O)cc3)=c3/cc/c4[n]3[Mn]([Cl])[n]3c2ccc3/C(c2ccc(C(=O)O)cc2)=C2/C=CC(=N2)\C=4c2ccc(C(=O)O)cc2)cc1 [MnTBAP]
ROS induced decline in Bcl-2 [1]: reversed

Staphylococcal enterotoxin B [SEB]
numbers of CD3+/CD8+/Vβ8+ T cells [2]: remained elevated | serum IL-2 level [3]: significant increase | serum IFNg level [4]: significant increase | serum IL-12p70 level [5]: significant increase | intracellular Bcl-2 protein per Vβ8+ T cell [6]: equally reduced amounts | Bcl-2 mRNA level in lymph nodes [7]: suppressed; also recorded: reduction | Bcl-xL mRNA level in lymph nodes [8]: suppressed; also recorded: reduced | Bax mRNA level in lymph nodes [9]: did not appear to be significantly affected | percentage of Annexin V positive Vβ8+ T cells [10]: significantly enhanced
